Here are results for twelve compounds from patent publication US20190117685A1, “PROCESS FOR THE IDENTIFICATION OF COMPOUNDS FOR TREATING CANCER” (FUNDACIÓN CENTRO NACIONAL DE INVESTIGACIONES ONCOLÓGICAS …, priority 2009, published 2019).

Non-standard residues stand in square brackets, D forms with d. Residues, ends and D or L forms follow the SMILES beside them. *: point of attachment. Sta = CC(C)C[C@H](N)[C@@H](O)CC(=O)O; Isovaleryl = CC(C)CC(=O)*; Cbz = O=C(OCc1ccccc1)*; CH2F = FC*

Data set [1] has as its system SK-Mel-103 melanoma cells. Kind of data set: GFP-LC3 foci fluorescence analysis of autophagy. In kind it is cell-based, human. To be noted: with BO-110 treatment, 12 h. On the procedure:
An eGFP-LC3 fusion cloned into the pCNA expression vector was a gift from Gabriel Nidiez (University of Michigan Cancer Center). eGFP-LC3 and the fragments eGFP-Rab7wt, eGFP-Rab7 T22N, eGFP-Rab5wt, eGFP-Cherry-LC3 and Cherry-LC3 were cloned into the pLVO-puro lentiviral vector for stable gene transfer. […] GFP-LC3-associated fluorescence emission was imaged using a LEICA™ AF6000 fluorescence microscope and images were analyzed by LAS AF V1.9 (Leica, Solms, Germany). For confocal real time microscopy, we used a LEICA™ TCS-SP2-AOBS-UV ultra-spectral microscope coupled to a CO2 and temperature-controlled incubation chamber. Images were analyzed by LCS (Leica, Solms, Germany). […] Co-localization images were analyzed with LAS AF V1.9 (Leica, Solms, Germany).
To address the role of autophagy in the response of melanoma to drugs, a discriminative analysis based in GFP-LC3 was used to screen commercially available chemotherapeutic drugs and immunomodulators. Melanoma cells were stably transfected with lentiviral vectors expressing derivatives of the autophagosomal LC3 marker with GFP, such as pLVO-eGFP-LC3.
Subsequent validation studies were performed on a panel of human cell lines of diverse genetic background (see below).

Another data set has as its system SK-Mel-147. The data set can be described thus: Cell death by trypan blue exclusion, SK-Mel-147. In kind it is cell-based, human. To be noted: for effect of antioxidant on cell death by BO-110: BO-110 plus ROS scavenger.
In the next data set the test system is SK-Mel-19. Kind of data set: Cell death by trypan blue exclusion, SK-Mel-19. In kind it is cell-based, human. Particulars: doxorubicin 0.5 μg/ml, 30 h. On the procedure:
(§1) Cell viability assays in response to drug treatments were done after seeding melanocytes and melanoma cells at least 12 hours before drug treatment. The percentage of cell death at the indicated times and treatment concentrations was estimated by standard trypan blue exclusion assays as previously described (Wolter et al., 2007; Fernández et al., 2005).

The next data set relates to SK-Mel-103. The data set can be described thus: Cell death by trypan blue exclusion, SK-Mel-103. In kind it is cell-based, human.
For another data set, the system named is SK-Mel-28. Kind of data set: Cell death by trypan blue exclusion, SK-Mel-28. In kind it is cell-based, human. Particulars: doxorubicin 0.5 μg/ml, 30 h. Here is the method:
as §1

In a further data set the test system is MCL-1. Kind of data set: MCL-1 protein levels by immunoblotting. In kind it is cell-based, human. To be noted: melanoma cells. On the procedure: To determine changes in protein levels, 2×10^6 cells were treated as indicated and harvested at different times after treatment. Total cell lysates were subjected to electrophoresis in 10, 12 or 4-15% gradient SDS gels under reducing conditions, and subsequently transferred to IMMOBILON-P® (0.45 um pore size hydrophobic polyvinylidene fluoride, PVDF) membranes (Millipore, Bedford, Mass., USA). Protein bands were detected by the ECL system (GE Healthcare, Buckinghamshire, UK).
Secondary antibodies were either anti-mouse or anti-rabbit from GE Healthcare. Image J was used to quantify changes in proteins levels induced by the different treatments, considering untreated controls as reference for basal expression.
To assess similarities and differences between bortezomib and pIC (naked or complexed with PEI), melanoma cells were incubated with each of these compounds and extracts were collected at different time points after treatment to assess the levels of NOXA, MCL-1, and other Bcl-2 family members (Bcl-xL or Bcl-2). Results are shown in FIGS. 9A, 9B, 9C, 9D, 9E, and 9F.
In general terms: A western blot detects proteins with antibodies after separation by electrophoresis.

The test system of another data set is NOXA. Kind of data set: NOXA protein levels by immunoblotting and densitometry. In kind it is cell-based, human. To be noted: SK-Mel-28 or SK-Mel-147 melanoma cells.
A further data set deals with MDA-5. The data set can be described thus: MDA-5 proteolytic cleavage by immunoblotting. In kind it is cell-based, human. To be noted: SK-Mel-28 and SK-Mel-147 cell extracts.
For data set [2], the system named is SK-Mel-103 cells. Kind of data set: Confocal microscopy of autolysosomes, lysosomal activity and endosomes. In kind it is cell-based, human. The source says: An eGFP-LC3 fusion cloned into the pCNA expression vector was a gift from Gabriel Nidiez (University of Michigan Cancer Center). eGFP-LC3 and the fragments eGFP-Rab7wt, eGFP-Rab7 T22N, eGFP-Rab5wt, eGFP-Cherry-LC3 and Cherry-LC3 were cloned into the pLVO-puro lentiviral vector for stable gene transfer. Melanoma derived cells (i.e., SK-Mel-103) were infected with pLVO-eGFP-LC3 and selected with puromycin. GFP-LC3-associated fluorescence emission was imaged using a LEICA™ AF6000 fluorescence microscope and images were analyzed by LAS AF V1.9 (Leica, Solms, Germany). […] Images were analyzed by LCS (Leica, Solms, Germany). […] Co-localization images were analyzed with LAS AF V1.9 (Leica, Solms, Germany). […]
To independently monitor lysosomal activity during BO-110 treatment, cells were tested for the ability to process DQ-BSA (a derivative of BSA whose green fluorescence is quenched unless cleaved by proteolytic enzymes). […] Note that DQ-BSA emission was detected at the lysosomes, as indicated by colocalization with LYSOTRACKER® Red, a dye whose cell permeability is pH dependent and emits red fluorescence when incorporated into functional lysosomes acids). […]
Having determined that autophagosomes fuse to active lysosomes in response to BO-110, we assessed whether these organelles interacted with or were recruited to endosomes.

For data set [3], the system named is IFIT-1. Kind of data set: IFIT-1 mRNA by quantitative PCR, bone-marrow-derived macrophages. In kind it is cell-based. Here is the method:
(§2) Human interferon alpha was measured in culture supernatants by enzyme-linked immunoabsorbent assay (ELISA). The human IFN-α ELISA Kit and recombinant hIFN-α were purchased from PBL Interferon Source (Piscataway, N.Y.) and used according to the manufacturer's protocol. IFN-α expression level was measured from bone-marrow-derived macrophages (BMDMs) and B16 melanoma cells by real-time PCR. BMDMs were prepared, plated and treated as previously described (Celada et al., 1984). Real-time quantitative PCR analysis of IFIT-1 RNA transcripts was performed using TAQMAN® primer and probes obtained from Applied Biosystems on an Applied Biosystems 7700 sequence detector after normalization with […].
(§3) pIC is a classical inducer of IFN-driven cellular immunity (Wenzel et al., 2008). […] To assess this possibility, B16 melanoma cells and macrophages were tested for their ability to secrete and respond to IFN-α. […] This is expected, as these cells can efficiently sense viral dsRNA.

In another data set the test system is melanoma. To be noted: naked pIC, clinical studies (Robinson et al., 1976); cited from earlier work.
Data set [4] relates to SK-Mel-103 cells. Kind of data set: Ultrastructural analysis by transmission electron microscopy. In kind it is cell-based, human. Particulars: 5-12 h after treatment. On the procedure:
For transmission electron microscopy (TEM), the indicated cell populations were rinsed with […] buffer, pH 7.5 and fixed in 2.5% glutaraldehyde for 1.5 h, and subsequently dehydrated and embedded in Spurr's resin. Then, the block was sectioned at 60-100 nm ultra thin sections and picked up on copper grids. For routine analysis ultrathin sections were stained with 2% uranyl acetate and lead citrate. Electron micrographs were acquired with a Philips CM-100 transmission electron microscope (FEI, Hillsbrough, Oreg.) and a KODAK™ 1.6 MEGAPLUS™ digital camera.
The GFP-LC3 focal staining in cells treated with BO-110 described in the previous paragraph is consistent with the formation of autophagosomes. However, to rule out possible unspecific aggregations of ectopically expressed GFP-LC3 (Klionsky et al., 2008), the response was analyzed independently by electron microscopy (FIG. 1D).

The test system of data set [5] is melanoma cell lines (SK-Mel-19, -28, -103, -147, and B16). Kind of data set: Cell death by trypan blue exclusion, melanoma cell lines. In kind it is cell-based, human and murine. To be noted: naked pIC versus PEI-complexed pIC. Here is the method:
as §1
With these lines, tests were conducted similar to those described in Example 1 for SK-Mel-103 cell line, to verify the sensitivity of each of these cells to pIC and PEI as independent agents or used in combination.

Data set [6] deals with IFIT-1. Kind of data set: IFIT-1 mRNA by quantitative PCR, B16 melanoma cells. In kind it is cell-based, mouse. Here is the method: as §2, §3
Setting [7] is: 20 hours after treatment with BO-110.

Protocol for MDA-5: This analysis was carried out by immunoblotting extracts from SK-Mel-28 and SK-Mel-147 cells treated with PEI, pIC or BO-110, after subjecting these extracts to electrophoresis. As a positive control for efficient induction of cell death bortezomib was used.

Turning to `Cn1cnc(N)c2ncnc1-2` [3-MA, 3-methyladenine], the “effect of autophagy inhibitor on GFP-LC3 foci / autophagosomes induced by BO-110” value in data set [1] is reported as “blocked GFP-LC3 foci formation by BO-110”.

Consider `COc1cccc2c1C(=O)c1c(O)c3c(c(O)c1C2=O)C[C@@](O)(C(=O)CO)C[C@@H]3O[C@H]1C[C@H](N)[C@H](O)[C@H](C)O1` [DOX, doxorubicin], for which the “DOX: response to doxorubicin, percentage of cell death” value with SK-Mel-147 (SK-Mel-147, doxorubicin 0.5 μg/ml, 30 h) is given as “− (<30%)”; with SK-Mel-19, “++ (100-70)”; in the data set with SK-Mel-103 (SK-Mel-103, doxorubicin 0.5 μg/ml, 30 h) it was “− (<30%)”; in the data set on SK-Mel-28, “− (<30%)”.

Turning to `CCOC(=O)[C@H]1O[C@@H]1C(=O)N[C@@H](CC(C)C)C(=O)NCCC(C)C` [E64d], in the data set with SK-Mel-103 (setting [7]), the “reduction of the extent of cell death by BO-110” value is reported as 50%.

For the compound `O=S(=O)([O-])c1cc(O)c(O)c(S(=O)(=O)[O-])c1.[Na+].[Na+]` [TIRON™], the “effect of antioxidant on cell death by BO-110” value (from here on “effect of antioxidant”) in the data set on SK-Mel-147 is on record as “no significant effects”.

Take `Cc1c(C)c2c(c(C)c1O)CCC(C)(C(=O)O)O2` (stereo not drawn) [TROLOX™]: in the data set on SK-Mel-147, the “effect of antioxidant” value is on record as “no significant effects”.

In the case of `CC(C)C[C@H](NC(=O)[C@H](Cc1ccccc1)NC(=O)c1cnccn1)B(O)O` [bortezomib, Bortezomib], in the data set with MCL-1, the MCL-1 levels entry is on record as “induces a simultaneous accumulation of MCL-1”. For the same compound, the “NOXA induction (in words)” value in the data set with NOXA was “activates NOXA potently”. Moreover, in the data set with MDA-5, the “induction of MDA-5 processing (30 kD band)” value is given as “no effect on MDA-5 levels or processing”.

For `CCN(CC)CCCC(C)Nc1ccnc2cc(Cl)ccc12` (stereo not drawn) [chloroquine, Chloroquine], the “effect of autophagy inhibitor on GFP-LC3 foci / autophagosomes induced by BO-110” value in data set [1] is recorded as “autophagosomes accumulated”. Further, the “inhibitory effect on cell death triggered by BO-110” value in the data set with SK-Mel-103 (setting [7]) was “blocked melanoma cell death triggered by BO-110”. The “lysosomal proteolysis: DQ-BSA cleavage” value in the data set with SK-Mel-103 cells [2] is recorded as “minimum of fluorescence emission due to DQ-BSA”.

With `CC(C)CC(=O)N[C@H](C(=O)N[C@H](C(=O)N[C@@H](CC(C)C)[C@@H](O)CC(=O)N[C@@H](C)C(=O)N[C@@H](CC(C)C)[C@@H](O)CC(=O)O)C(C)C)C(C)C` [pepstatin A] (Isovaleryl-VV[Sta]A[Sta]-OH), in the data set with SK-Mel-103 (setting [7]), the “reduction of the extent of cell death by BO-110” value is 50%.

`COC(=O)C[C@H](NC(=O)[C@H](C)NC(=O)[C@@H](NC(=O)OCc1ccccc1)C(C)C)C(=O)CF` [z-VAD-fmk] (Cbz-Val-Ala-Asp(OMe)-CH2F): in the data set on SK-Mel-147 (SK-Mel-147, BO-110 plus pan-caspase inhibitor), the “inhibition of BO-110 killing” value was found to be 70%.

With IFN-α, in the data set on SK-Mel-103 (high doses, 10 times over levels secreted after BO-110, 24 h), the “effect on melanoma cell viability” value is “unable to affect melanoma cell viability”.

As for polyinosine-polycytidylic acid [pIC], the “induction of IFN target IFIT-1” value in the data set with IFIT-1 [3] is on record as “PEI was dispensable for pIC-mediated induction of IFN targets”. For the same compound, in the data set with melanoma, the “antitumoral effect for melanoma” value is “absence of antitumoral effect for melanoma”, the “induction of IFN” value is “low induction of IFN” and the stability result is reported as “low stability”. Besides, the “autophagosome formation (electron microscopy)” value in the data set with SK-Mel-103 cells [4] is given as “minimal activity as inducer of autophagy”. For the same compound, the “NOXA induction (in words)” value in the data set with NOXA is on record as “failed to induce NOXA consistently or in a sustained manner”. The “induction of MDA-5 processing (30 kD band)” value in the data set on MDA-5 was “significantly lower levels”. Moreover, in [5], the “reduction of antimelanoma activity of pIC when PEI was not included” value was 70-80%. Moreover, the “induction of IFN target IFIT-1” value in the data set on IFIT-1 [6] is reported as “unable to induce IFIT-1”.

As for vitamin E, the “effect of antioxidant” value in the data set on SK-Mel-147 is recorded as “no significant effects”.
